According to US20110251379A1, “COMPOUNDS USEFUL FOR TREATING NEURODEGENERATIVE DISORDERS” (Satori Pharmaceuticals, Inc., priority 2010, published 2011):
pIC50: −log10 of the molar value. Read-outs that look alike come from different tables or passages of the source.

Assays:
Type in all cases: cell-based
Aβ-40 = assay: MSD Human (6E10) Ab 3-PLEX elisa, conditioned media of 2B7 cells: Aβ-40; conditions: for pIC50: Aβ-40 (superscript b); for inhibition at 20 µM / % Inh. (range): Aβ-40, 20 μM
Description: (§1) Assays were conducted to determine the ability of a Compound of Formula I to modulate […], and Aβ-38.
(§2) Plates with capture antibodies were blocked for 1-2 hours at room temperature with 150 μL of the manufactures blocking reagent.
(§3) Conditioned Media: • Cultured 2B7 cells in 96 well plate with 250 uL of media per well until confluent; • Prepared serial dilutions of compounds in DMSO at 100× the final desired concentration; • Washed wells with 2B7 cells 1× with 250 uL of media; • Diluted DMSO stocks 1:100 into media: • Added 250 μL of media containing compounds (1% DMSO) to wells with 2B7 cells for 5 hours at 37° C.
(§4) Elisa Sample Prep: • Diluted conditioned media: 1 part media with 1% DMSO and 1 part blocking buffer; • 150 μL of the 250 μL of conditioned media were used.
(§5) […] CURVE SAMPLE PREP: Prepared per manufacturer's protocol (see above) • Seven point standard curve samples were prepared that contained Aβ-42, Aβ-40, and Aβ-38. The highest concentration of Aβ-42 and Aβ-3-38 was 3,000 pg/mL and the highest concentration of Aβ-40 was 10,000 pg/mL. Subsequent serial dilutions were 1:3 and the final composition of each sample was 1 part blocking buffer and 1 part cell medium containing 1% DMSO.
(§6) Overnight Sample Incubation: • Blocked plates are washed 5× with MSD wash buffer with a plate washer • 25 uL of detection antibody and blocker G reagent in MSD blocking solution is added • 25 uL of samples (1 part conditioned media containing 1% DMSO and 1 part MSD blocking buffer) are then added. • plates are incubated overnight at 4 degrees C. or 2 hours at room temp
(§7) Final Wash and Readout: • Wash wells 5× with MSD wash buffer • Added 150 μL 2×MSD read buffer • Read with MSD imager.
(§8) A-Beta peptide levels for each peptide are calculated from the standard curve using the MSD software provided with the MSD 2400 Imager. Percent vehicle values for each compound dosage were then calculated and fit to a 4 parameter curve generating IC50 values.

Aβ-42 = assay: MSD Human (6E10) Ab 3-PLEX elisa, conditioned media of 2B7 cells: Aβ-42; conditions: for pIC50: Aβ-42 (superscript c)
Description: as §1, §2, §3, §4, §5, §6, §7, §8

Aβ-38 = assay: MSD Human (6E10) Ab 3-PLEX elisa, conditioned media of 2B7 cells: Aβ-38
Description: as §1, §2, §3, §4, §5, §6, §7, §8

[1] = Homo sapiens, read-out: IC50 range
[2] = Homo sapiens, Aβ-38 (superscript a), read-out: 50% reduction value
[3] = Homo sapiens, read-out: 50% reduction value
[4] = Aβ-38 (superscript a), read-out: 50% reduction value
[5] = Aβ-38 (superscript a), read-out: IC50 range

**Q.** C[C@@H]1CC(CNC(C(=O)O)C(F)(F)F)OC2[C@H]1[C@@]1(C)CC[C@@]34C[C@@]35CC[C@H](O[C@H]3CN(C(=O)CC6CC6)CCO3)C(C)(C)[C@@H]5CCC4[C@]1(C)[C@H]2O (some centres unmarked) was tested. Which pIC50 (Aβ-40; [1]) did it give?
**A.** 5.00 to 6.00

**Q.** What about the pIC50 (Aβ-42; [1]) of the same compound?
**A.** 5.00 to 6.00

**Q.** With CC(=O)O[C@H](C(C)C)C1C[C@@H](C)[C@H]2C(O1)[C@H](O)[C@@]1(C)C3CC[C@H]4C(C)(C)[C@@H](O[C@H]5CN(C(=O)C(C)C)CCO5)CC[C@@]45C[C@@]35CC[C@]21C (some centres unmarked) as the compound, how does the pIC50 (Aβ-38; [2]) read?
**A.** > 6.00

**Q.** And the pIC50 (Aβ-38; Homo sapiens, Aβ-38 (superscript a), read-out: IC50 range)?
**A.** > 6.00

**Q.** What about the pIC50 (Aβ-40; [3]) of the same compound?
**A.** > 6.00

**Q.** What about the pIC50 (Aβ-42; [3]) of the same compound?
**A.** > 6.00

**Q.** What about the pIC50 (Aβ-42; [1]) of the same compound?
**A.** > 6.00

**Q.** With COC(=O)NCC1C[C@@H](C)[C@H]2C(O1)[C@H](O)[C@@]1(C)C3CC[C@H]4C(C)(C)[C@@H](O)CC[C@@]45C[C@@]35CC[C@]21C (some centres unmarked) as the compound, how does the pIC50 (Aβ-38; [2]) read?
**A.** < 5.00

**Q.** And the inhibition at 20 µM (Aβ-40; Homo sapiens)?
**A.** 25 to 75%

**Q.** What about the inhibition at 20 µM (Aβ-42; Homo sapiens, Aβ-42, 20 μM) of the same compound?
**A.** 25 to 75%

**Q.** With COC(=O)N(C)CC1C[C@@H](C)[C@H]2C(O1)[C@H](O)[C@@]1(C)C3CC[C@H]4C(C)(C)[C@@H](O)CC[C@@]45C[C@@]35CC[C@]21C (some centres unmarked) as the compound, how does the pIC50 (Aβ-38; [2]) read?
**A.** 5.00 to 6.00

**Q.** And the pIC50 (Aβ-40; [3])?
**A.** < 5.00

**Q.** And the inhibition at 20 µM (Aβ-42; Homo sapiens, Aβ-42, 20 μM)?
**A.** 25 to 75%

**Q.** C[C@@H]1CC(CNC(=O)N(C)C)OC2[C@H]1[C@@]1(C)CC[C@@]34C[C@@]35CC[C@H](O)C(C)(C)[C@@H]5CCC4[C@]1(C)[C@H]2O (some centres unmarked) was tested. Which pIC50 (Aβ-38; [2]) did it give?
**A.** < 5.00

**Q.** What about the inhibition at 20 µM (Aβ-40; Homo sapiens) of the same compound?
**A.** 25 to 75%

**Q.** What about the inhibition at 20 µM (Aβ-42; Homo sapiens, Aβ-42, 20 μM) of the same compound?
**A.** < 25%

**Q.** C[C@@H]1CC(CN(C)C(=O)N(C)C)OC2[C@H]1[C@@]1(C)CC[C@@]34C[C@@]35CC[C@H](O)C(C)(C)[C@@H]5CCC4[C@]1(C)[C@H]2O (some centres unmarked) was tested. Which pIC50 (Aβ-38; [2]) did it give?
**A.** 5.00 to 6.00

**Q.** And the inhibition at 20 µM (Aβ-40; Homo sapiens)?
**A.** 25 to 75%

**Q.** And the inhibition at 20 µM (Aβ-42; Homo sapiens, Aβ-42, 20 μM)?
**A.** 25 to 75%

**Q.** With CC1CC(C(OC(=O)C2CC2)C(C)(C)O)OC2C1C1(C)CCC34CC35CCC(OC3CN(C6COC6)CCO3)C(C)(C)C5CCC4C1(C)C2O (centres unmarked) as the compound, how does the pIC50 (Aβ-38; [4]) read?
**A.** 5.00 to 6.00

**Q.** What about the pIC50 (Aβ-38; [5]) of the same compound?
**A.** > 6.00

**Q.** And the pIC50 (Aβ-40; read-out: 50% reduction value)?
**A.** 5.00 to 6.00

**Q.** And the pIC50 (Aβ-42; read-out: 50% reduction value)?
**A.** 5.00 to 6.00

**Q.** What does the source list for CC1CC(C(OC(=O)C2CCOC2)C(C)(C)O)OC2C1C1(C)CCC34CC35CCC(OC3CN(C6COC6)CCO3)C(C)(C)C5CCC4C1(C)C2O (centres unmarked)?
**A.** pIC50 (Aβ-38; [4]): 5.00 to 6.00; pIC50 (Aβ-38; [5]): > 6.00; pIC50 (Aβ-40; read-out: 50% reduction value): 5.00 to 6.00; pIC50 (Aβ-42; read-out: 50% reduction value): 5.00 to 6.00

**Q.** Which results are given for CC(C)CC(=O)OC(C1CC(C)C2C(O1)C(O)C1(C)C3CCC4C(C)(C)C(OC5CN(C6COC6)CCO5)CCC45CC35CCC21C)C(C)(C)O (centres unmarked)?
**A.** IC50 range (nM) (Aβ-38; Aβ-38 (superscript a)): A- B; pIC50 (Aβ-38; [4]): 5.00 to 6.00; pIC50 (Aβ-40; read-out: 50% reduction value): 5.00 to 6.00; pIC50 (Aβ-40; read-out: IC50 range): 5.00 to 6.00; pIC50 (Aβ-42; read-out: 50% reduction value): 5.00 to 6.00; pIC50 (Aβ-42; read-out: IC50 range): 5.00 to 6.00

**Q.** CC1CC(C(OC(=O)CC2CC2)C(C)(C)O)OC2C1C1(C)CCC34CC35CCC(OC3CN(C6COC6)CCO3)C(C)(C)C5CCC4C1(C)C2O (centres unmarked) was tested. Which pIC50 (Aβ-38; [4]) did it give?
**A.** > 6.00

**Q.** What about the pIC50 (Aβ-38; [5]) of the same compound?
**A.** > 6.00

**Q.** And the pIC50 (Aβ-40; read-out: 50% reduction value)?
**A.** 5.00 to 6.00

**Q.** What about the pIC50 (Aβ-40; read-out: IC50 range) of the same compound?
**A.** 5.00 to 6.00

**Q.** And the pIC50 (Aβ-42; read-out: 50% reduction value)?
**A.** > 6.00

**Q.** What about the pIC50 (Aβ-42; read-out: IC50 range) of the same compound?
**A.** > 6.00

**Q.** CCC1CC(C)C2C(O1)C(O)C1(C)C3CCC4C(C)(C)C(O)CCC45CC35CCC21C (centres unmarked) was tested. Which “% Inh. (range)” value (Aβ-38; Aβ-38, 20 μM) did it give?
**A.** E (% inhibition of 25-75%)

**Q.** And the “% Inh. (range)” value (Aβ-40)?
**A.** E (% inhibition of 25-75%)

**Q.** And the “% Inh. (range)” value (Aβ-42; Aβ-42, 20 μM)?
**A.** F (% inhibition of <25%)

**Q.** CC1CC(C2OCC(=O)OC2(C)C)OC2C1C1(C)CCC34CC35CCC(OC3CN(C6COC6)CCO3)C(C)(C)C5CCC4C1(C)C2O (centres unmarked) was tested. Which pIC50 (Aβ-38; [4]) did it give?
**A.** 5.00 to 6.00

**Q.** And the pIC50 (Aβ-40; read-out: 50% reduction value)?
**A.** 5.00 to 6.00

**Q.** And the pIC50 (Aβ-42; read-out: 50% reduction value)?
**A.** 5.00 to 6.00

**Q.** CC1CC(C(OC(=O)C2CCOCC2)C(C)(C)O)OC2C1C1(C)CCC34CC35CCC(OC3CN(C6COC6)CCO3)C(C)(C)C5CCC4C1(C)C2O (centres unmarked) was tested. Which pIC50 (Aβ-38; [4]) did it give?
**A.** > 6.00

**Q.** What about the pIC50 (Aβ-38; [5]) of the same compound?
**A.** > 6.00

**Q.** What about the pIC50 (Aβ-40; read-out: 50% reduction value) of the same compound?
**A.** 5.00 to 6.00

**Q.** And the pIC50 (Aβ-40; read-out: IC50 range)?
**A.** 5.00 to 6.00

**Q.** And the pIC50 (Aβ-42; read-out: 50% reduction value)?
**A.** > 6.00

**Q.** With COC1C2OC(C(OC(=O)C3CC3)C(C)(C)O)CC(C)C2C2(C)CCC34CC35CCC(OC3CNCCO3)C(C)(C)C5CCC4C12C (centres unmarked) as the compound, how does the pIC50 (Aβ-38; [4]) read?
**A.** 5.00 to 6.00

**Q.** What about the “% Inh. (range)” value (Aβ-40) of the same compound?
**A.** E^b (20 μM) (% inhibition of 25-75%)

**Q.** And the pIC50 (Aβ-42; read-out: 50% reduction value)?
**A.** 5.00 to 6.00
